{
  "source": "paper PMC8371902",
  "about": "“Phase 1 study of M2698, a p70S6K/AKT dual inhibitor, in patients with advanced cancer” (Journal of Hematology & Oncology, 2021)",
  "system": "patients with advanced metastatic cancer",
  "text": "In this phase 1 study, dose escalation was followed by expansion cohorts of once-daily, oral M2698 in continuous 21-day cycles. Primary objectives were to determine the maximum tolerated dose (MTD), dose-limiting toxicities (DLTs), and recommended phase 2 dose (RP2D). Secondary objectives were to assess safety and tolerability, pharmacokinetics (PK, including food effect) and antitumor activity. Pharmacodynamic biomarker assessments were exploratory. Treatment was discontinued if there was disease progression, toxicity or consent withdrawal.\nIn Part 1, M2698 monotherapy was investigated in a dose escalation with a food effect cohort. In Part 2, M2698 was investigated as monotherapy (expansion cohort) to further characterize safety, tolerability and pharmacokinetics, and assess antitumor activity in PAM + patients without confounding markers (exploratory).\nDose escalation analysis included all patients who experienced a DLT and those who received ≥ 80% of planned M2698 doses in cycle 1 without experiencing a DLT. Safety analysis included all patients who received ≥ 1 dose of M2698. PK analysis included all patients who received ≥ 1 dose of M2698 and had measurable plasma concentrations. Dose proportionality was tested using the power model (linear regression approach on the log -transformed scale).",
  "note": "Where two headings read alike, the source gives them in different places.",
  "data": [
    {"smiles": "NC(=O)c1cccc2c(N[C@H](CN3CCC3)c3ccc(Cl)c(C(F)(F)F)c3)ncnc12", "note": "[M2698]", "values": [
      {"measurement": "M2698-related TEAE: Abnormal dreams", "setting": "15 mg n=3", "result": 0},
      {"measurement": "M2698-related TEAE: Affect lability", "setting": "15 mg n=3", "result": 0},
      {"measurement": "M2698-related TEAE: Alanine aminotransferase increased", "setting": "15 mg n=3", "result": 0},
      {"measurement": "M2698-related TEAE: Amylase increased", "setting": "15 mg n=3", "result": 0},
      {"measurement": "M2698-related TEAE: Anaemia", "setting": "15 mg n=3", "result": 0},
      {"measurement": "M2698-related TEAE: Angina pectoris", "setting": "15 mg n=3", "result": 0},
      {"measurement": "M2698-related TEAE: Anxiety", "setting": "15 mg n=3", "result": 0},
      {"measurement": "M2698-related TEAE: Aphasia", "setting": "15 mg n=3", "result": 0},
      {"measurement": "M2698-related TEAE: Ataxia", "setting": "15 mg n=3", "result": 0},
      {"measurement": "M2698-related TEAE: Blood and lymphatic system disorders", "setting": "15 mg n=3", "result": 0},
      {"measurement": "M2698-related TEAE: Blood creatine phosphokinase increased", "setting": "15 mg n=3", "result": 0},
      {"measurement": "M2698-related TEAE: Blood creatinine increased", "setting": "15 mg n=3", "result": 0},
      {"measurement": "M2698-related TEAE: Cardiac disorders", "setting": "15 mg n=3", "result": 0},
      {"measurement": "M2698-related TEAE: Cognitive disorder", "setting": "15 mg n=3", "result": 0},
      {"measurement": "M2698-related TEAE: Constipation", "setting": "15 mg n=3", "result": 0},
      {"measurement": "M2698-related TEAE: Decreased appetite", "setting": "15 mg n=3", "result": 0},
      {"measurement": "M2698-related TEAE: Delusion", "setting": "15 mg n=3", "result": 0},
      {"measurement": "M2698-related TEAE: Depression", "setting": "15 mg n=3", "result": 0},
      {"measurement": "M2698-related TEAE: Diarrhoea", "setting": "15 mg n=3", "result": 0},
      {"measurement": "M2698-related TEAE: Diarrhoea haemorrhagic", "setting": "15 mg n=3", "result": 0},
      {"measurement": "M2698-related TEAE: Dizziness", "setting": "15 mg n=3", "result": 0},
      {"measurement": "M2698-related TEAE: Dry eye", "setting": "15 mg n=3", "result": 0},
      {"measurement": "M2698-related TEAE: Dry mouth", "setting": "15 mg n=3", "result": 0},
      {"measurement": "M2698-related TEAE: Dysgeusia", "setting": "15 mg n=3", "result": 0},
      {"measurement": "M2698-related TEAE: Dyspepsia", "setting": "15 mg n=3", "result": 0},
      {"measurement": "M2698-related TEAE: Dysphagia", "setting": "15 mg n=3", "result": 0},
      {"measurement": "M2698-related TEAE: Energy increased", "setting": "15 mg n=3", "result": 0},
      {"measurement": "M2698-related TEAE: Erythema", "setting": "15 mg n=3", "result": 0},
      {"measurement": "M2698-related TEAE: Euphoric mood", "setting": "15 mg n=3", "result": 0},
      {"measurement": "M2698-related TEAE: Eye disorders", "setting": "15 mg n=3", "result": 0},
      {"measurement": "M2698-related TEAE: Fatigue", "setting": "15 mg n=3", "result": 0},
      {"measurement": "M2698-related TEAE: Gamma-glutamyltransferase increased", "setting": "15 mg n=3", "result": 1},
      {"measurement": "M2698-related TEAE: Gastrointestinal disorders", "setting": "15 mg n=3", "result": 0},
      {"measurement": "M2698-related TEAE: Gastrooesophageal reflux disease", "setting": "15 mg n=3", "result": 0},
      {"measurement": "M2698-related TEAE: General disorders and administration site conditions", "setting": "15 mg n=3", "result": 0},
      {"measurement": "M2698-related TEAE: Headache", "setting": "15 mg n=3", "result": 0},
      {"measurement": "M2698-related TEAE: Hyperhidrosis", "setting": "15 mg n=3", "result": 0},
      {"measurement": "M2698-related TEAE: Hypokalaemia", "setting": "15 mg n=3", "result": 0},
      {"measurement": "M2698-related TEAE: Hypomagnesaemia", "setting": "15 mg n=3", "result": 0},
      {"measurement": "M2698-related TEAE: Insomnia", "setting": "15 mg n=3", "result": 0},
      {"measurement": "M2698-related TEAE: Investigations", "setting": "15 mg n=3", "result": 1},
      {"measurement": "M2698-related TEAE: Lipase increased", "setting": "15 mg n=3", "result": 0},
      {"measurement": "M2698-related TEAE: Lymphopenia", "setting": "15 mg n=3", "result": 0},
      {"measurement": "M2698-related TEAE: Metabolism and nutrition disorders", "setting": "15 mg n=3", "result": 0},
      {"measurement": "M2698-related TEAE: Mucosal inflammation", "setting": "15 mg n=3", "result": 0},
      {"measurement": "M2698-related TEAE: Nausea", "setting": "15 mg n=3", "result": 0},
      {"measurement": "M2698-related TEAE: Nervous system disorders", "setting": "15 mg n=3", "result": 0},
      {"measurement": "M2698-related TEAE: Nightmare", "setting": "15 mg n=3", "result": 0},
      {"measurement": "M2698-related TEAE: Onychomadesis", "setting": "15 mg n=3", "result": 0},
      {"measurement": "M2698-related TEAE: Paranoia", "setting": "15 mg n=3", "result": 0},
      {"measurement": "M2698-related TEAE: Photosensitivity reaction", "setting": "15 mg n=3", "result": 0},
      {"measurement": "M2698-related TEAE: Posterior reversible encephalopathy syndrome", "setting": "15 mg n=3", "result": 0},
      {"measurement": "M2698-related TEAE: Pruritus generalised", "setting": "15 mg n=3", "result": 0},
      {"measurement": "M2698-related TEAE: Psychiatric disorders", "setting": "15 mg n=3", "result": 0},
      {"measurement": "M2698-related TEAE: Rash", "setting": "15 mg n=3", "result": 0},
      {"measurement": "M2698-related TEAE: Rash maculo-papular", "setting": "15 mg n=3", "result": 0},
      {"measurement": "M2698-related TEAE: Skin and subcutaneous tissue disorders", "setting": "15 mg n=3", "result": 0},
      {"measurement": "M2698-related TEAE: Subjects with at least one event", "setting": "15 mg n=3", "result": 1},
      {"measurement": "M2698-related TEAE: Transaminases increased", "setting": "15 mg n=3", "result": 0},
      {"measurement": "M2698-related TEAE: Tremor", "setting": "15 mg n=3", "result": 0},
      {"measurement": "M2698-related TEAE: Vision blurred", "setting": "15 mg n=3", "result": 0},
      {"measurement": "M2698-related TEAE: Vomiting", "setting": "15 mg n=3", "result": 0},
      {"measurement": "M2698-related TEAE: White blood cell count decreased", "setting": "15 mg n=3", "result": 0},
      {"measurement": "M2698-related TEAE: Abnormal dreams", "setting": "30 mg n=3", "result": 0},
      {"measurement": "M2698-related TEAE: Affect lability", "setting": "30 mg n=3", "result": 0},
      {"measurement": "M2698-related TEAE: Alanine aminotransferase increased", "setting": "30 mg n=3", "result": 0},
      {"measurement": "M2698-related TEAE: Amylase increased", "setting": "30 mg n=3", "result": 0},
      {"measurement": "M2698-related TEAE: Anaemia", "setting": "30 mg n=3", "result": 0},
      {"measurement": "M2698-related TEAE: Angina pectoris", "setting": "30 mg n=3", "result": 0},
      {"measurement": "M2698-related TEAE: Anxiety", "setting": "30 mg n=3", "result": 0},
      {"measurement": "M2698-related TEAE: Aphasia", "setting": "30 mg n=3", "result": 0},
      {"measurement": "M2698-related TEAE: Ataxia", "setting": "30 mg n=3", "result": 0},
      {"measurement": "M2698-related TEAE: Blood and lymphatic system disorders", "setting": "30 mg n=3", "result": 0},
      {"measurement": "M2698-related TEAE: Blood creatine phosphokinase increased", "setting": "30 mg n=3", "result": 0},
      {"measurement": "M2698-related TEAE: Blood creatinine increased", "setting": "30 mg n=3", "result": 0},
      {"measurement": "M2698-related TEAE: Cardiac disorders", "setting": "30 mg n=3", "result": 0},
      {"measurement": "M2698-related TEAE: Cognitive disorder", "setting": "30 mg n=3", "result": 0},
      {"measurement": "M2698-related TEAE: Constipation", "setting": "30 mg n=3", "result": 0},
      {"measurement": "M2698-related TEAE: Decreased appetite", "setting": "30 mg n=3", "result": 0},
      {"measurement": "M2698-related TEAE: Delusion", "setting": "30 mg n=3", "result": 0},
      {"measurement": "M2698-related TEAE: Depression", "setting": "30 mg n=3", "result": 0},
      {"measurement": "M2698-related TEAE: Diarrhoea", "setting": "30 mg n=3", "result": 1},
      {"measurement": "M2698-related TEAE: Diarrhoea haemorrhagic", "setting": "30 mg n=3", "result": 0},
      {"measurement": "M2698-related TEAE: Dizziness", "setting": "30 mg n=3", "result": 0},
      {"measurement": "M2698-related TEAE: Dry eye", "setting": "30 mg n=3", "result": 0},
      {"measurement": "M2698-related TEAE: Dry mouth", "setting": "30 mg n=3", "result": 0},
      {"measurement": "M2698-related TEAE: Dysgeusia", "setting": "30 mg n=3", "result": 0},
      {"measurement": "M2698-related TEAE: Dyspepsia", "setting": "30 mg n=3", "result": 0},
      {"measurement": "M2698-related TEAE: Dysphagia", "setting": "30 mg n=3", "result": 0},
      {"measurement": "M2698-related TEAE: Energy increased", "setting": "30 mg n=3", "result": 0},
      {"measurement": "M2698-related TEAE: Erythema", "setting": "30 mg n=3", "result": 0},
      {"measurement": "M2698-related TEAE: Euphoric mood", "setting": "30 mg n=3", "result": 0},
      {"measurement": "M2698-related TEAE: Eye disorders", "setting": "30 mg n=3", "result": 1},
      {"measurement": "M2698-related TEAE: Fatigue", "setting": "30 mg n=3", "result": 0},
      {"measurement": "M2698-related TEAE: Gamma-glutamyltransferase increased", "setting": "30 mg n=3", "result": 0},
      {"measurement": "M2698-related TEAE: Gastrointestinal disorders", "setting": "30 mg n=3", "result": 1},
      {"measurement": "M2698-related TEAE: Gastrooesophageal reflux disease", "setting": "30 mg n=3", "result": 0},
      {"measurement": "M2698-related TEAE: General disorders and administration site conditions", "setting": "30 mg n=3", "result": 0},
      {"measurement": "M2698-related TEAE: Headache", "setting": "30 mg n=3", "result": 0}
    ]}
  ]
}
